Source: US20250282825A1, “NOVEL CYCLIC COMPOUNDS, METHOD FOR THEIR PREPARATION AND THE USE OF SAID CYCLIC COMPOUNDS IN COSMETIC PREPARATIONS” (priority 2020, published 2025)

Key:
[1] = system: S. aureus N315 LugIEFGH; assay type: cell-based, Staphylococcus aureus; details: for recognized and transported by the lugdunin transporters LugIEFGH: derived from MIC ratio, FIG. 5
[2] = system: human primary keratinocytes; assay: LDH assay (lactate dehydrogenase release); assay type: cell-based; details: 3.1 μg/ml, 24 h, 37° C., keratinocytes from three donors, relative to Triton-X (100%)
Procedure: To verify the results, an LDH assay was performed using human primary keratinocytes from three different donors according to the manufacturer's instructions. This assay is based on the detection of the enzyme lactate dehydrogenase, which is released into the cell culture medium when the cell membrane is damaged, where it can then be detected. […] Subsequently, 50 μl of each cell culture supernatant was transferred to a 96well plate, mixed with 50 μl of LDH reagent and measured (according to manufacturer's instructions). […] DMSO served as a negative control (solvent control).

[3] = system: human primary keratinocytes; assay: WST-1 assay (cell viability/cytotoxicity); assay type: cell-based; details: 3.1 μg/ml, 6 h, 37° C., keratinocytes from three donors, versus DMSO solvent control
Procedure: To determine possible cytotoxicity, a WST-1 assay was first performed using human primary keratinocytes from three different donors according to the manufacturer's instructions. The colorimetric assay measures cell viability of cells and can therefore be used to determine cytotoxic compounds incubated with the cells. The greater the number of viable cells, the higher the activity of mitochondrial dehydrogenases and the greater the amount of dye formed in the assay. […] Cell culture supernatants were then removed, and WST1 reagent was added to the keratinocytes. […] DMSO served as a negative control (solvent control).

[4] = system: SARS-CoV-2

| Compound | formation of resistance ([1]; conclusion from MIC ratio) | recognized and transported by the lugdunin transporters LugIEFGH [1] | MIC ratio MIC(S. aureus LugIEFGH)/MIC(S. aureus Wt) ([1]; ratio close to 1 = no resistance increase by the transporters, lugdunin value is the median) | cytotoxic effect in LDH assay [2] | cytotoxic effect in WST-1 assay [3] | virus inhibition ([4]; A549 cells, SARS-CoV-2 MOI=1.0, concentration 3.7 μM) | antiviral activity relative to lugdunin ([4]; higher antiviral activity than lugdunin, from EC50 values) | EC50 ([4]; read-out: EC50 (SARS-CoV-2 antiviral activity), A549 cells, SARS-CoV-2 MOI=1.0) |
| --- | --- | --- | --- | --- | --- | --- | --- | --- |
| CC(C)C[C@H]1NC(=O)[C@H](Cc2c[nH]c3ccccc23)NC(=O)[C@@H](C(C)C)NC(=O)[C@H]2NC(SC2(C)C)[C@H](C(C)C)NC(=O)[C@@H](C(C)C)NC(=O)[C@H](C(C)C)NC1=O [I.1] | no formation of resistance is to be expected | neither I.1 nor CCCP, is recognized and transported | 1.064 |  |  |  |  |  |
| CC(C)C[C@H]1NC(=O)[C@H](Cc2c[nH]c3ccccc23)NC(=O)[C@@H](C(C)C)NC(=O)[C@H]2NC(SC2(C)C)[C@H](C(C)C)NC(=O)[C@@H](Cc2c[nH]c3ccccc23)NC(=O)[C@H](C(C)C)NC1=O [I.3] |  |  |  | no significant cytotoxic effect | no such cytotoxic effect | about 80% | approximately 9 fold | 2220 nM |
| carbonyl cyanide-3-chrlophenylhydrazone [CCCP, reference compound] |  | neither I.1 nor CCCP, is recognized and transported |  |  |  |  |  |  |
